The text below walks through data of ChEMBL document CHEMBL2073857, “Increased sensitivity to vincristine of MDR cells by the leukotriene D4 receptor antagonist, ONO-1078” (Cancer Lett, 1998).

This data set has as its target Multidrug resistance-associated protein 1 (MRP1) (Homo sapiens, UniProt P33527). Briefly: TP_TRANSPORTER: inhibition of LTC4 uptake (LTC4: 0.00134 uM, ONO-1078: 100 uM) in membrane vesicles from CV60 cells. It is filed as functional, cell membranes, Membrane vesicle. Set-up: scale not given: the % may be the effect or the level left. Conditions: probe LTC4 (0.00134 uM), read-out: Activity.

Chain of Multidrug resistance-associated protein 1 (MRP1) (P33527 whole entry): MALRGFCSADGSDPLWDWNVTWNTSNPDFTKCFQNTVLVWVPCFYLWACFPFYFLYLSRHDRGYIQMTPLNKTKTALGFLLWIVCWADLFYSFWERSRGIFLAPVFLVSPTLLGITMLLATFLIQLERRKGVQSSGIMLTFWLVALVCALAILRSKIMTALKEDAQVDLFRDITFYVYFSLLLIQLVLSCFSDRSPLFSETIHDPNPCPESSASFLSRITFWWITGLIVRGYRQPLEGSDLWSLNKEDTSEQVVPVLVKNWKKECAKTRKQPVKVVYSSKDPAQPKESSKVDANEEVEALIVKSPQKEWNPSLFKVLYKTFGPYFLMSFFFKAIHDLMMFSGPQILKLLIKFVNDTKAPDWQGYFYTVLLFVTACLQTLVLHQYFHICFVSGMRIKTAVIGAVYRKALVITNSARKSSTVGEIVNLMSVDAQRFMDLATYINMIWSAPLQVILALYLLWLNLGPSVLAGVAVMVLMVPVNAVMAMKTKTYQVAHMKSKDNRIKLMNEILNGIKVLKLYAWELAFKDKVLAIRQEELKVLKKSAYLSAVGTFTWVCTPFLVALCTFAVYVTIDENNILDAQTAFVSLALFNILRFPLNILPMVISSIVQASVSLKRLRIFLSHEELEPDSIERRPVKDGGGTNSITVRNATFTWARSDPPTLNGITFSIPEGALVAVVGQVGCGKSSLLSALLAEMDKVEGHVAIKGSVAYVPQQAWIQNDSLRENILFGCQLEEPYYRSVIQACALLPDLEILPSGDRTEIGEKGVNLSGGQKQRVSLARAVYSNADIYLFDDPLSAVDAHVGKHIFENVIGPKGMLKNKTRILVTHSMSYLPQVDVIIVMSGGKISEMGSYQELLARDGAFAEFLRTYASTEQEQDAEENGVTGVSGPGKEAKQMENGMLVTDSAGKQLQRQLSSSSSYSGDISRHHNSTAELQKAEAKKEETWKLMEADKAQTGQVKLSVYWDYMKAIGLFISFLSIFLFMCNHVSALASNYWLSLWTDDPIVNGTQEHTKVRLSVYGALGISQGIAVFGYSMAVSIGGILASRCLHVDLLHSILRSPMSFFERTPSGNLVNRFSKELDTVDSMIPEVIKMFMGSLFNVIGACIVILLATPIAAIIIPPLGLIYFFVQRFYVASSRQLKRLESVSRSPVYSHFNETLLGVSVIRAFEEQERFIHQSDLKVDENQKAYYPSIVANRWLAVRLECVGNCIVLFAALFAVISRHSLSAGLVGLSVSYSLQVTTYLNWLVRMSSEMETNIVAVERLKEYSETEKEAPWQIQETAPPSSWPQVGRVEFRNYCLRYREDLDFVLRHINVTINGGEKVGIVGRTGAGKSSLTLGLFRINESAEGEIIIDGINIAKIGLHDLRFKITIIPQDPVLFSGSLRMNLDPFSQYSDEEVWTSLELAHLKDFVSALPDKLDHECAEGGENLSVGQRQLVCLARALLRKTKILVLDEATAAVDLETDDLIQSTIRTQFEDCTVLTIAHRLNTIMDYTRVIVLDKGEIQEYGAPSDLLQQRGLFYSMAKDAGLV

As to `O=C(Nc1cccc2c(=O)cc(-c3nnn[nH]3)oc12)c1ccc(OCCCCc2ccccc2)cc1` [PRANLUKAST], the activity at 100 µM was found to be 55%.
